The subject of series [1] is rat cortical neurons. Description: trophic factor withdrawal. The class given is cell-based. The following applies: serum-containing medium, Baicalein 10-10,000 nM, 2 days. The protocol: FIG. 5A—trophic factor withdrawal. Primary cortical neurons are prepared from 18-day-old rat embryos, and cultured at low cell density 1×10^6/35 mm dish, in serum containing medium with Baicalein (10-10,000 nM), and viability assayed 2 days later using a live-dead assay. […] These include trophic factor withdrawal (TFW), excitotoxicity, glucose starvation, and most importantly, in a chemical ischemia model. […] (FIG. 5A). Using a published excitotoxicity assay, Baicalein rescues about 35% of the cells (FIG. 5B).

The subject of series [2] is embolic strokes in rabbits. Description: rabbit small clot embolic stroke model (RSCEM). The class given is in vivo. The source says: The ability of polyphenol analogs to treat, prevent and/or mitigate one or more symptoms of stroke can also be evaluated in in vivo assays. Such assays are known in the art and find use. One applicable in vivo screening assay is the rabbit clot embolic stroke model, discussed, e.g., in Lapchak, et al., Stroke (2002) 33(9):2279-84 and Lapchak, Exp Neurol. (2007) 205(2):407-13. The rabbit small clot embolic stroke model (RSCEM) and rabbit large clot embolic stroke model (RLCEM) can be used to determine the potential neuroprotective properties and safety profile of test polyphenol analogs after an embolic stroke. Rabbits are embolized by injecting small blood clots (RSCEM) or large blood clots (RLCEM) into the cerebral circulation. Behavioral analysis is conducted 24 hours later, allowing for determination of the effective stroke dose (ES50) or clot amount (milligrams) that produces severe neurological deficits in 50% of rabbits. A drug is considered neuroprotective if it increases the ES50 compared with the vehicle-treated control group.
Either vehicle or bolus injections of chlorogenic acid were administered intravenously over 1 minute starting 5 minutes following embolization using a suspension of small-sized blood clots. In this series of studies, CGA was administered at 50 mg/kg. Behavioral analysis was conducted at 24 hours following treatment, which allowed for the construction of quantal dose-response analysis curves. […] For the superimposed graphs, normal animals are plotted on the y-axis at 0% and abnormal animals are plotted at 100%. […] Moreover, CGA increased the P50 value (the clot dose that produces abnormality in 50% of a treatment group) compared to vehicle control. For a detailed discussion of the methods used to fit the quantal data to a sigmoidal curve, see Zivin and Waud. The pharmacology of chlorogenic acid in the rabbit small clot embolic stroke model (RSCEM) has been published (Lapchak, Exp Neurol. 2007 205(2):407-13). In the manuscript, it is shown that CGA has a therapeutic window of 60 minutes in the RSCEM. FIG. 2 presents the therapeutic window data.
Using the RSCEM assay described above for CGA, the effects of Fisetin (50 mg/kg) on behavioral outcome measured 24 hours following embolization is tested.

In series [3] the test system is primary mouse cortical neurons. Put plainly: primary cortical cell glutamate excitotoxicity assay. Type of series: cell-based. The settings on record: E14 mouse primary cortical neurons, 10 μM glutamate 10 min, Baicalein 0.2-5 μM, MTT 24 hr. On the procedure: FIG. 5B—excitotoxicity assay was done with E14 mouse primary cortical neuron cultures. After 11 days of culture, cells were exposed to 10 μM glutamate for 10 min, followed by the addition of varying concentrations of Baicalein (0.2-5 μM). Cell viability was determined 24 hr later with a standard MTT assay.
Excitotoxicity cell assay: Primary cultures of cortical neurons that die due to excitotoxicity were prepared as described previously. Briefly, BALB/c mouse embryo cortices were minced and treated with 0.1% trypsin for 20 min. After centrifugation, the cells are resuspended in 827 Neurobasal medium (Invitrogen) plus 10% fetal calf serum and are dissociated by repeated pipetting through a 1 mL blue Eppendorf pipette tip. Then the cells are plated at 1×10^5 cells per well in 96-well poly-L-lysine and laminin-coated microtiter plates (Becton Dickinson, Bedford, Mass., USA) in 827 Neurobasal plus 10% fetal calf serum and 20% glial growth-conditioned medium. Two days later the medium is aspirated and replaced by serum-free 827 Neurobasal medium plus 10 μg/mL cytosine arabinoside. The cultures are used without media change 11 days after plating and are essentially free of astrocytes. They are exposed to 10 μM glutamate followed by varying concentrations of the compounds. Cell viability is determined 24 h later using […]. […]

The subject of series [4] is embolic strokes in rabbits. The settings on record: RSCEM, as published in the manuscript; cited from earlier work.
Series [5] concerns PC12 cells. Put plainly: glucose starvation assay. The class given is cell-based. The following applies: PC12 cells starved for glucose, MTT 24 hr. On the procedure:
FIG. 5C—PC12 cells were glucose-deprived then were incubates in the absence or presence of Baicalein. Cell viability was determined 24 hr later using the MTT assay. […] When these cells are starved for glucose, there is approximately 70% maximal survival in the presence of NGF. Baicalein promotes over 80% survival (FIG. 5C).

The conditions of series [6]: Shia, et al. 2009; cited from earlier work.
Series [7] deals with Akita mouse. The settings on record: Maher et al. 2011; cited from earlier work.
Series [8] has as its system mice. The settings on record: oral dose; cited from earlier work.

Data on two compounds can be found in patent US9744164B2, “Neuroprotective polyphenol analogs” (Salk Institute for Biological Studies, priority 2011, dated 2017).

With `O=c1cc(-c2ccccc2)oc2cc(O)c(O)c(O)c12` [Baicalein, 5,6,7-trihydroxyflavone], in series [1], the “survival of low-density cultured rat cortical neurons” value is recorded as “dramatically promotes the survival”. Also, in series [2] (1 hour following embolization), the “behavior when administered 1 hour following embolization” value is listed as “effective at improving behavior”. Further, the “behavior when administered 3 hours following embolization” value in series [2] (3 hours following embolization) is given as “neither improve behavior”. In series [3], the cells rescued entry was “about 35%”. Also, the therapeutic window in series [4] was not below 60 min. Also, in series [5], the survival result is “over 80%”.

For `O=c1c(O)c(-c2ccc(O)c(O)c2)oc2cc(O)ccc12` [Fisetin, 3,7,3′,4′-tetrahydroxy flavone], the bioavailability entry in series [6] was “poor”. In series [7], the “elevation of blood sugar” value is reported as “no effect”; the “kidney hypertrophy and albuminuria” value was “reduced”. In addition, in series [8], the memory result was “potentiates memory equally as well as rolipram”.
